Laboratory results published in patent publication US20020132809A1, “Heterocyclic carboxamide derivatives as inhibitors of nitric oxide production” (Fujisawa Pharmaceutical Co. Ltd., priority 1998, published 2002).

Tested on: rat cardiac allograft
Assay: Protective effect of the compound (a) combined with FK506 on rat cardiac allograft
Format: in vivo
Settings: single-drug group: FK506 0.32 mg/kg, daily gastric intubation for 14 days; Lewis donor to ACI recipient heterotopic cardiac transplantation
Description: Test 2: Protective Effect of the Compound (a) Combined with FK 506 on Rat Cardiac Allograft
Experiments were performed on male Lewis and ACI rats weighing 175-200 g. Rats were anesthetized with sodium pentobarbital (50 mg/kg, i.p.), and underwent allogeneic (Lewis donor to ACI recipient) heterotopic intra-abdominal cardiac transplantation. Experimental groups were divided into single-drug group and combined-drug group. Single-drug dose of FK506, which was prepared in a manner similar to that disclosed in EP-0184162, was 0.32 mg/kg. Combined-drug dose was FK506 (0.32 mg/kg)+the compound (a) (10 mg/kg). The grafted hearts were monitored by daily palpation where complete rejection was defined as the cessation of palpable contractile activity. Each drug was suspended in a solution of 0.5% methylcellulose, and administered by daily gastric intubation in a volume of 5 ml/kg of body weight for 14 days.
The combination of the compound (a) and an immunosuppressive agent (FK506) was examined to determine whether it could improve rat cardiac allograft survival.
For C=CC[C@@H]1/C=C(\C)C[C@H](C)C[C@H](OC)[C@H]2O[C@@](O)(C(=O)C(=O)N3CCCC[C@H]3C(=O)O[C@H](/C(C)=C/[C@@H]3CC[C@@H](O)[C@H](OC)C3)[C@H](C)[C@@H](O)CC1=O)[C@H](C)C[C@@H]2OC [FK506], the “MST (day) (Median Survival Time)” value was 10 days.

Tested on: not given
Assay: not given
Settings: not given
Work on Cn1c(-c2ccc(-n3cnc4ccccc43)cc2)cnc1[C@H](Cc1ccccn1)N(C=O)c1cc2ccccc2o1 [Example 32, (1S)-N-[1-[5-[4-(1-Benzimidazolyl)phenyl]-1-methylimidazol-2-yl]-2-(2-pyridyl)ethyl](benzo[b]furan-2-yl)formamide] yielded a melting point of 152 to 155 °C. For Cn1c(-c2ccc(-c3cccnc3)cc2)cnc1[C@H](Cc1ccccn1)N(C=O)c1cc2cc(Cl)ccc2o1 [Example 34, (1S)-(5-Chlorobenzo[b]furan-2-yl)-N-[1-[1-methyl-5-[4-(3-pyridyl)-phenyl]imidazol-2-yl]-2-(2-pyridyl)ethyl]formamide], the melting point was 158 to 160 °C. Cn1c(-c2ccc(-c3cccnc3)cc2)cnc1[C@H](Cc1ccccn1)N(C=O)c1cc2cc(Br)ccc2o1 [Example 35, (1S)-(5-Bromobenzo[b]furan-2-yl)-N-[1-[1-methyl-5-[4-(3-pyridyl)-phenyl]imidazol-2-yl]-2-(2-pyridyl)ethyl]formamide] gave a melting point of 168 to 171 °C. In the case of Cn1c(-c2ccc(-c3ccccn3)cc2)cnc1[C@H](Cc1ccccn1)N(C=O)c1cc2cc(Cl)ccc2o1 [Example 36, (1S)-(5-Chlorobenzo[b]furan-2-yl)-N-[1-[1-methyl-5-[4-(2-pyridyl)-phenyl]imidazol-2-yl]-2-(2-pyridyl)ethyl]formamide], the melting point is reported as 175 to 180 °C. For Cn1c(-c2ccc(-c3ccncc3)cc2)cnc1[C@H](Cc1ccccn1)N(C=O)c1cc2cc(Cl)ccc2o1 [Example 37, (1S)-(5-Chlorobenzo[b]furan-2-yl)-N-[1-[1-methyl-5-[4-(4-pyridyl)-phenyl]imidazol-2-yl]-2-(2-pyridyl)ethyl]formamide], the melting point was 135 to 140 °C. Work on Cn1c(-c2ccc(-c3cncs3)cc2)cnc1[C@H](Cc1ccccn1)N(C=O)c1cc2cc(Cl)ccc2o1 [Example 38, (1S)-(5-Chlorobenzo[b]furan-2-yl)-N-[1-[1-methyl-5-[4-(5-thiazolyl)phenyl]imidazol-2-yl]-2-(2-pyridyl)ethyl]formamide] yielded a melting point of 165 to 167 °C. Compound Cn1c(-c2ccc([N+](=O)[O-])cc2)cnc1[C@H](Cc1ccccn1)N(C=O)c1cc2cc(C(F)(F)F)ccc2o1 [Example 39, (1S)-N-[1-[1-Methyl-5-(4-nitrophenyl)imidazol-2-yl]-2-(2-pyridyl)-ethyl][5-(trifluoromethyl)benzo[b]furan-2-yl]formamide] has a melting point of 192 to 194 °C. Compound CCCn1c(-c2ccc(-n3ccnc3)cc2)cnc1[C@H](Cc1ccccn1)N(C=O)c1cc2cc(Br)ccc2o1 [Example 44, (1S)-(5-Bromobenzo[b]furan-2-yl)-N-[1-[5-[4-(1-imidazolyl)phenyl]-1-propylimidazol-2-yl]-2-(2-pyridyl)ethyl]formamide] has a melting point of 93 to 99 °C. For Cn1c(-c2ccc(-n3ccnc3)cc2)cnc1[C@H](Cc1ccccn1)N(C=O)c1cc2cc(Br)ccc2o1 [Example 46, (1S)-(5-Bromobenzo[b]furan-2-yl)-N-[1-[5-[4-(1-imidazolyl)-phenyl]-1-methylimidazol-2-yl]-2-(2-pyridyl)ethyl]formamide], the melting point was 197 to 199 °C. With CCCn1c(-c2ccc(-n3ccnc3)cc2)cnc1[C@H](Cc1ccccn1)N(C=O)c1cc2cc(Cl)ccc2o1 [Example 48, (1S)-(5-Chlorobenzo[b]furan-2-yl)-N-[1-[5-[4-(1-imidazolyl)-phenyl]-1-propylimidazol-2-yl]-2-(2-pyridyl)ethyl]formamide] the melting point was 173 to 175 °C. Cn1c(-c2ccc(-n3ccnc3)cc2)cnc1[C@H](Cc1ccccn1)N(C=O)c1cc2cc(Cl)ccc2o1 [Example 49, (1S)-(5-Chlorobenzo[b]furan-2-yl)-N-[1-[5-[4-(1-imidazolyl)-phenyl]-1-methylimidazol-2-yl]-2-(2-pyridyl)ethyl]formamide] gave a melting point of 63 to 73 °C. With Cn1c(-c2ccc(-n3ccnc3)cc2)cnc1[C@H](Cc1ccccn1)N(C=O)c1cc2cc([N+](=O)[O-])ccc2o1 [Example 50, (1S)-N-[1-[5-[4-(1-Imidazolyl)phenyl]-1-methylimidazol-2-yl]-2-(2-pyridyl)ethyl](5-nitrobenzo[b]furan-2-yl)formamide] the melting point was 221 to 223 °C. For COc1ccc2oc(N(C=O)[C@@H](Cc3ccccn3)c3ncc(-c4ccc(-n5ccnc5)cc4)n3C)cc2c1 [Example 51, (1S)-N-[1-[5-[4-(1-Imidazolyl)phenyl]-1-methylimidazol-2-yl]-2-(2-pyridyl)ethyl](5-methoxybenzo[b]furan-2-yl)formamide], the melting point was 151 to 153 °C. With CCCn1c(-c2ccc(-n3ccnc3)cc2)cnc1[C@H](Cc1ccncc1)n1c(NC=O)cc2ccccc21 [Example 52, (1S)-N-[1-[5-[4-(1-Imidazolyl)phenyl]-1-propylimidazol-2-yl]-2-(4-pyridyl)ethyl](indol-2-yl) formamide] the melting point was 238 to 240 °C (dec.). For Cn1c(-c2ccc(-n3ccnc3)cc2)cnc1[C@H](Cc1ccccn1)N(C=O)c1cc2cc(F)ccc2o1 [Example 54, (1S)-(5-Fluorobenzo[b]furan-2-yl)-N-[1-[5-[4-(1-imidazolyl)-phenyl]-1-methylimidazol-2-yl]-2-(2-pyridyl)ethyl]formamide], the melting point was 180 to 182 °C. For CCn1c(-c2ccc(-n3ccnc3)cc2)cnc1[C@H](Cc1ccccn1)N(C=O)c1cc2cc(F)ccc2o1 [Example 55, (1S)-N-[1-[1-Ethyl-5-[4-(1-imidazolyl)phenyl]imidazol-2-yl]-2-(2-pyridyl)ethyl](5-fluorobenzo[b]furan-2-yl)formamide], the melting point was 80 to 84 °C. For CCCn1c(-c2ccc(-n3ccnc3)cc2)cnc1[C@H](Cc1ccccn1)N(C=O)c1cc2cc(F)ccc2o1 [Example 56, (1S)-(5-Fluorobenzo[b]furan-2-yl)-N-[1-[5-[4-(1-imidazolyl)-phenyl]-1-propylimidazol-2-yl]-2-(2-pyridyl)ethyl]formamide], the melting point was 77 to 81 °C. Cn1c(-c2ccc([N+](=O)[O-])cc2)cnc1[C@H](Cc1ccccn1)N(C=O)c1cc2cc(F)ccc2o1 [Example 63, (1S)-(5-Fluorobenzo[b]furan-2-yl)-N-[1-[1-methyl-5-(4-nitrophenyl)imidazol-2-yl]-2-(2-pyridyl)ethyl]formamide] gave a melting point of 207 to 208 °C. For Cn1c(-c2ccc([N+](=O)[O-])cc2)cnc1[C@H](Cc1ccccn1)N(C=O)c1cc2ccccc2o1 [Example 64, (1S)-(Benzo[b]furan-2-yl)-N-[1-[1-methyl-5-(4-nitrophenyl)imidazol-2-yl]-2-(2-pyridyl)ethyl]formamide], the melting point was 103 to 104 °C. Cn1c(-c2ccc(-n3ccnc3)cc2)cnc1[C@H](Cc1ccccn1)N(C=O)c1cc2cccc(Cl)c2o1 [Example 68, (1S)-(7-Chlorobenzo[b]furan-2-yl)-N-[1-[5-[4-(1-imidazolyl)phenyl]-1-methylimidazol-2-yl]-2-(2-pyridyl)ethyl]formamide] showed a melting point of 182 to 184 °C. For Cc1nccn1-c1ccc(-c2cnc([C@H](Cc3ccccn3)N(C=O)c3cc4cc(Cl)ccc4o3)n2C)cc1 [Example 70, (1S)-(5-Chlorobenzo[b]furan-2-yl)-N-[1[-1-methyl-5-[4-(2-methylimidazol-1-yl)phenyl]imidazol-2-yl]-2-(2-pyridyl)ethyl]formamide], the melting point was 159 to 161 °C.
